Experimental data as given in patent publication US9512084B2, “Amino pyrimidine derivatives” (Novartis AG, priority 2013, dated 2016).

Assays:
[1] = target: full-length human recombinant BTK (Homo sapiens (Human), UniProt Q06187); experiment: Inhibition of Btk enzymatic activity (biochemical enzyme assay, Caliper); settings: 6.4 nM enzyme solution, 164 μM ATP solution, 30° C., 60 minutes
Experimental: The inhibitory activity of the present compounds against Btk was assessed in a biochemical enzyme assay. […] The assay plates were prepared by addition of 50 nl per well of compound solution in 90% DMSO. […] Kinase reactions were analyzed on a Caliper LC3000 workstation by separating phosphorylated and unphosphorylated peptides and kinase activities were calculated from the amounts of newly formed phospho-peptide.

Btk = Btk (Rattus norvegicus, UniProt Q5S255); experiment: Inhibition of Btk activity in blood (in vitro B cell activation assay, CD86, rat whole blood); assay type: cell-based; settings: Lewis rat whole blood diluted to 50%, anti-rat IgM + rat IL-4, 24 hours, CD86 on CD45RA positive B cells
Experimental: Alternatively, the inhibitory activity of the present compounds in blood was assessed in the following in vitro B cell activation assay. Whole blood was collected from the abdominal aorta of anaesthetized adult male Lewis rats and was anticoagulated with 100 U/ml sodium heparin. Blood was then diluted to 50% with high glucose DMEM (Amimed) supplemented with […] penicillin, […], 2 mM L-glutamin, 50 mg/ml dextran 40 and 5% FCS (Fetaclone I, Gibco). Then, 190 μl prediluted blood was mixed in 96 well U-bottomed microtiter plates (Nunc) with 10 μl of serial dilutions of test compounds in DMSO. […] Activation of B cells was measured by flow cytometry after staining for the B cell subset with PE-Cy5-labeled anti-ratCD45RA (Beckton-Dickinson) and for the activation marker CD86 (PE-labeled anti-rat CD86 (Beckton-Dickinson). All staining procedures were performed at RT for 30 min in the dark in 96-deep well V-bottomed microtiter plates (Corning) with BD Lysing Solution (Beckton-Dickinson).
Cytometric data was acquired on a FACScalibur flow cytometer (BD Biosciences) and the subpopulation of lymphocytes were gated according to size and granularity and further analyzed for expression of CD45RA and the activation markers. Data for the inhibition of B cell activation were calculated from the percentage of cells positively stained for activation markers within the CD45RA positive population.

Sequence of full-length human recombinant BTK (Q06187 whole entry): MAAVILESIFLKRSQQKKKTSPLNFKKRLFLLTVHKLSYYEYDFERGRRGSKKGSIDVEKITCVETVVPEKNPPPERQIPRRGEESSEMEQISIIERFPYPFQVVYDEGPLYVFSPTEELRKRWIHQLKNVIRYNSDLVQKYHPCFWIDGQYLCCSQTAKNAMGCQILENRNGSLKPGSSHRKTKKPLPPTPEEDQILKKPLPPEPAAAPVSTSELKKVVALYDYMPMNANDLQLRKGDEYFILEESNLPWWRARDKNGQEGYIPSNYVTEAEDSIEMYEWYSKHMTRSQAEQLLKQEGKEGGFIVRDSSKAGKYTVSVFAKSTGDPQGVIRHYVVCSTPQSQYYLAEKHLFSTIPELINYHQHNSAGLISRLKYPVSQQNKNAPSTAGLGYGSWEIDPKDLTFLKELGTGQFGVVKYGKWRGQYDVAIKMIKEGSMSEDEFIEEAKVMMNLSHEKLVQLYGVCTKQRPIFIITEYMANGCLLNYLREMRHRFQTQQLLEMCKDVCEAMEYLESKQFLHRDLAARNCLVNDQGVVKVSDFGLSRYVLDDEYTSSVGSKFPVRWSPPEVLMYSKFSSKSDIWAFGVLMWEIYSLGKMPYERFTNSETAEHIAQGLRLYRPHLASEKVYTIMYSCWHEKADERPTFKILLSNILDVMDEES
Sequence of Btk (Q5S255 1-660): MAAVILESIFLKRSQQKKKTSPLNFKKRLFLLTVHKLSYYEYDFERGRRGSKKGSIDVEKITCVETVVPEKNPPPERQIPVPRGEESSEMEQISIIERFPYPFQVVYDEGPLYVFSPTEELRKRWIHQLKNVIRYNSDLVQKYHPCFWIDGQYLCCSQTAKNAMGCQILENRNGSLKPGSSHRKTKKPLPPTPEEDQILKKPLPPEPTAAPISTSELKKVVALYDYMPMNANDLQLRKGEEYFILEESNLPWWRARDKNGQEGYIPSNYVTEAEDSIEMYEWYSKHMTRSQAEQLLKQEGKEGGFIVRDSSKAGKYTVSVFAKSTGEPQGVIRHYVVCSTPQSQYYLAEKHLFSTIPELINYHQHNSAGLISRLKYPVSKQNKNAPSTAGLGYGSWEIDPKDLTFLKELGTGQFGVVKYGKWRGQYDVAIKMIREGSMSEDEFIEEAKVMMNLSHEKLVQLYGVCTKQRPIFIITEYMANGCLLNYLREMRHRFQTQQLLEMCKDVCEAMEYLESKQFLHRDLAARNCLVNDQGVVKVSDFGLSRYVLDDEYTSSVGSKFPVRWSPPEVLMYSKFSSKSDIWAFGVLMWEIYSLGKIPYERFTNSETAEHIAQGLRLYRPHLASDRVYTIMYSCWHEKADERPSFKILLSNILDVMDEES

Compound	IC50 [1]	IC50 (Btk)
CC#CC(=O)N[C@@H](C)COc1c(N)ncnc1-c1cc(F)cc(NC(=O)c2ccc(C3CC3)cc2F)c1C [Example 18, (S)—N-(3-(6-Amino-5-(2-(but-2-ynamido)propoxy)pyrimidin-4-yl)-5-fluoro-2-methylphenyl)-4-cyclopropyl-2-fluorobenzamide]	1 nM	419 nM
C=CC(=O)N1CC[C@H]1COc1c(N)ncnc1-c1cc(F)cc(N2CCc3cc(C4CC4)ccc3C2=O)c1CO [Example 35, (S)-2-(3-(5-((1-Acryloylazetidin-2-yl)methoxy)-6-aminopyrimidin-4-yl)-5-fluoro-2-(hydroxymethyl)phenyl)-6-cyclopropyl-3,4-dihydroisoquinolin-1(2H)-one]	2 nM	72 nM
C=CC(=O)N1CC[C@H](OC)[C@H]1COc1c(N)ncnc1-c1cc(F)cc(NC(=O)c2ccc(C3CC3)cc2F)c1C [Example 38, N-(3-(5-(((2R,3S)-1-Acryloyl-3-methoxypyrrolidin-2-yl)methoxy)-6-aminopyrimidin-4-yl)-5-fluoro-2-methylphenyl)-4-cyclopropyl-2-fluorobenzamide]	2 nM	70 nM
C=CC(=O)N1C[C@H](OC)C[C@H]1COc1c(N)ncnc1-c1cc(F)cc(NC(=O)c2ccc(C3CC3)cc2F)c1C [Example 26, N-(3-(5-(((2S,4R)-1-Acryloyl-4-methoxypyrrolidin-2-yl)methoxy)-6-aminopyrimidin-4-yl)-5-fluoro-2-methylphenyl)-4-cyclopropyl-2-fluorobenzamide]	0.4 nM	51 nM
Cc1c(NC(=O)c2ccc(C3CC3)cc2F)cc(F)cc1-c1ncnc(N)c1OCCN(C)C(=O)C1CO1 (stereo not shown) [Example 11, N-(2-((4-Amino-6-(3-(4-cyclopropyl-2-fluorobenzamido)-5-fluoro-2-methylphenyl)pyrimidin-5-yl)oxy)ethyl)-N-methyloxirane-2-carboxamide]	10 nM	323 nM
CC#CC(=O)N(C)[C@@H](C)COc1c(N)ncnc1-c1cc(F)cc(NC(=O)c2ccc(C3CC3)cc2F)c1C [Example 20, (S)—N-(3-(6-Amino-5-(2-(N-methylbut-2-ynamido)propoxy)pyrimidin-4-yl)-5-fluoro-2-methylphenyl)-4-cyclopropyl-2-fluorobenzamide]	5 nM	330 nM
C=CC(=O)N[C@@H](C)COc1c(N)ncnc1-c1cc(F)cc(NC(=O)c2ccc(C3CC3)cc2F)c1C [Example 17, (S)—N-(3-(5-(2-Acrylamidopropoxy)-6-aminopyrimidin-4-yl)-5-fluoro-2-methylphenyl)-4-cyclopropyl-2-fluorobenzamide]	5 nM	246 nM
C=CC(=O)N(CCF)CCOc1c(N)ncnc1-c1cc(F)cc(NC(=O)c2ccc(C3CC3)cc2F)c1C [Example 15, N-(3-(6-Amino-5-(2-(N-(2-fluoroethyl)acrylamido)ethoxy)pyrimidin-4-yl)-5-fluoro-2-methylphenyl)-4-cyclopropyl-2-fluorobenzamide]	1 nM	29 nM
C=CC(=O)N(C)[C@@H](C)COc1c(N)ncnc1-c1cc(F)cc(NC(=O)c2ccc(C3CC3)cc2F)c1C [Example 19, (S)—N-(3-(6-Amino-5-(2-(N-methylacrylamido)propoxy)pyrimidin-4-yl)-5-fluoro-2-methylphenyl)-4-cyclopropyl-2-fluorobenzamide]	16 nM	136 nM
CC#CC(=O)N1CCC[C@H]1COc1c(N)ncnc1-c1cc(F)cc(NC(=O)c2ccc(C3CC3)cc2F)c1C [Example 23, (S)—N-(3-(6-Amino-5-((1-(but-2-ynoyl)pyrrolidin-2-yl)methoxy)pyrimidin-4-yl)-5-fluoro-2-methylphenyl)-4-cyclopropyl-2-fluorobenzamide]	1 nM	57 nM
CC#CC(=O)N1CC(Oc2c(N)ncnc2-c2cc(F)cc(NC(=O)c3ccc(C4CC4)cc3F)c2C)C1 [Example 4, N-(3-(6-Amino-5-((1-(but-2-ynoyl)azetidin-3-yl)oxy)pyrimidin-4-yl)-5-fluoro-2-methylphenyl)-4-cyclopropyl-2-fluorobenzamide]	9 nM	376 nM
CC#CC(=O)N1C[C@@H](OC)C[C@H]1COc1c(N)ncnc1-c1cc(F)cc(NC(=O)c2ccc(C3CC3)cc2F)c1C [Example 30, N-(3-(6-Amino-5-(((2S,4S)-1-(but-2-ynoyl)-4-methoxypyrrolidin-2-yl)methoxy)pyrimidin-4-yl)-5-fluoro-2-methylphenyl)-4-cyclopropyl-2-fluorobenzamide]	6 nM	222 nM
C=CC(=O)N1C[C@H](C#N)C[C@H]1COc1c(N)ncnc1-c1cc(F)cc(NC(=O)c2ccc(C3CC3)cc2F)c1C [Example 39, N-(3-(5-(((2S,4R)-1-Acryloyl-4-cyanopyrrolidin-2-yl)methoxy)-6-aminopyrimidin-4-yl)-5-fluoro-2-methylphenyl)-4-cyclopropyl-2-fluorobenzamide]	1 nM	176 nM
C=CC(=O)N(C)CCOc1c(N)ncnc1-c1cc(F)cc(N2CCc3cc(C4CC4)ccc3C2=O)c1CO [Example 25, N-(2-((4-Amino-6-(3-(6-cyclopropyl-1-oxo-3,4-dihydroisoquinolin-2(1H)-yl)-5-fluoro-2-(hydroxymethyl)phenyl)pyrimidin-5-yl)oxy)ethyl)-N-methylacrylamide]	1 nM	65 nM
CC#CC(=O)N1C[C@H](OC)C[C@H]1COc1c(N)ncnc1-c1cc(F)cc(NC(=O)c2ccc(C3CC3)cc2F)c1C [Example 27, N-(3-(6-Amino-5-(((2S,4R)-1-(but-2-ynoyl)-4-methoxypyrrolidin-2-yl)methoxy)pyrimidin-4-yl)-5-fluoro-2-methylphenyl)-4-cyclopropyl-2-fluorobenzamide]	3 nM	76 nM
COC/C=C/C(=O)N(C)CCOc1c(N)ncnc1-c1cc(F)cc(NC(=O)c2ccc(C3CC3)cc2F)c1C [Example 9, (E)-N-(3-(6-Amino-5-(2-(4-methoxy-N-methylbut-2-enamido)ethoxy)pyrimidin-4-yl)-5-fluoro-2-methylphenyl)-4-cyclopropyl-2-fluorobenzamide]	10 nM	240 nM
C#CC(=O)N1CC[C@H]1COc1c(N)ncnc1-c1cc(F)cc(NC(=O)c2ccc(C3CC3)cc2F)c1C [Example 34, (S)—N-(3-(6-Amino-5-((1-propioloylazetidin-2-yl)methoxy)pyrimidin-4-yl)-5-fluoro-2-methylphenyl)-4-cyclopropyl-2-fluorobenzamide]	2 nM	208 nM
C=CC(=O)N1CCC[C@H]1COc1c(N)ncnc1-c1cc(F)cc(N2CCc3cc(C4CC4)ccc3C2=O)c1CO [Example 24, (S)-2-(3-(5-((1-Acryloylpyrrolidin-2-yl)methoxy)-6-aminopyrimidin-4-yl)-5-fluoro-2-(hydroxymethyl)phenyl)-6-cyclopropyl-3,4-dihydroisoquinolin-1(2H)-one]	0.5 nM	32 nM
C=CC(=O)N1C[C@@H](C#N)C[C@H]1COc1c(N)ncnc1-c1cc(F)cc(NC(=O)c2ccc(C3CC3)cc2F)c1C [Example 40, N-(3-(5-(((2S,4S)-1-Acryloyl-4-cyanopyrrolidin-2-yl)methoxy)-6-aminopyrimidin-4-yl)-5-fluoro-2-methylphenyl)-4-cyclopropyl-2-fluorobenzamide]	2 nM	80 nM
C/C=C/C(=O)N1CC(Oc2c(N)ncnc2-c2cc(F)cc(NC(=O)c3ccc(C4CC4)cc3F)c2C)C1 [Example 2, (E)-N-(3-(6-Amino-5-((1-(but-2-enoyl)azetidin-3-yl)oxy)pyrimidin-4-yl)-5-fluoro-2-methylphenyl)-4-cyclopropyl-2-fluorobenzamide]	38 nM	1110 nM
C=CC(=O)N1CCC[C@@H](COc2c(N)ncnc2-c2cc(F)cc(NC(=O)c3ccc(C4CC4)cc3F)c2C)C1 [Example 37, (R)—N-(3-(5-((1-Acryloylpiperidin-3-yl)methoxy)-6-aminopyrimidin-4-yl)-5-fluoro-2-methylphenyl)-4-cyclopropyl-2-fluorobenzamide]	32 nM	968 nM
C#CC(=O)N1CC(Oc2c(N)ncnc2-c2cc(F)cc(NC(=O)c3ccc(C4CC4)cc3F)c2C)C1 [Example 3, N-(3-(6-Amino-5-((1-propioloylazetidin-3-yl)oxy)pyrimidin-4-yl)-5-fluoro-2-methylphenyl)-4-cyclopropyl-2-fluorobenzamide]	1 nM	124 nM
C=CC(=O)N1C[C@@H](OC)C[C@H]1COc1c(N)ncnc1-c1cc(F)cc(NC(=O)c2ccc(C3CC3)cc2F)c1C [Example 29, N-(3-(5-(((2S,4S)-1-Acryloyl-4-methoxypyrrolidin-2-yl)methoxy)-6-aminopyrimidin-4-yl)-5-fluoro-2-methylphenyl)-4-cyclopropyl-2-fluorobenzamide]	4 nM	134 nM
